Measured values: patent publication US12257252B2, “Compositions and methods for increasing tetrahydrobiopterin plasma exposure” (PTC Therapeutics MP, Inc., priority 2018, dated 2025)
Like-named read-outs stand apart in the source and are kept apart here.

Key:
[1] = Food effect on sepiapterin: plasma sepiapterin and BH4 in fasted and fed subjects; type: in vivo; conditions: sepiapterin 10 mg/kg oral
Procedure: Method: Subjects received 2 oral doses of sepiapterin (10 mg/kg) separated by 1 week in a fasted and fed state. Subjects were fed a standard high-fat (approximately 50 percent of total caloric content of the meal) and high-calorie (approximately 800 to 1000 calories) meal starting 30 minutes prior to receiving their second oral dose of sepiapterin on Day 8.
Sampling for PK analysis occurred predose on Days 1 and 8 (within 30 minutes before dosing) and 0.5 hr, 1 hr, 2 hr, 4 hr, 8 hr, 12 hr, and 24 hr after the doses on Days 1 and 8. The blood concentrations of sepiapterin and BH4 were analyzed by MNG Labs.

[2] = type: in vivo
Procedure: Method: Twelve subjects were given a single dose (10 mg/kg) of sepiapterin under fasting conditions and then 7 days later under fed conditions. Standard definitions of adverse events (AE) were used. All-cause AE were those that occurred at any time; treatment-emergent adverse events (TEAE) were those that occurred at or after the time of administration of study treatment. TEAEs related to study drug were based on the opinion of the investigator. Serious AE were defined as life threatening or caused death, hospitalization or prolongation of existing hospitalization, or were a persistent or significant disability/incapacity or a substantial disruption of the ability to conduct normal life functions, or a congenital anomaly/birth defect.

[3] = Pharmacokinetics of multiple doses of sepiapterin in fed subjects; type: in vivo
Excerpt: Methods: Three cohorts of eight fed subjects each were randomized to receive once-daily sepiapterin or placebo for 7 days in a 6:2 ratio. A sentinel dose strategy was also used for administration of the highest sepiapterin dose.

[4] = CSF levels of sepiapterin, BH4, BH2 and neurotransmitter metabolites after sepiapterin; type: in vivo; conditions: 60 mg/kg; Day 1 or Day 7 +/-30 minutes from BH4 Tmax
Procedure: The cerebrospinal fluid (CSF) of selected subjects is collected via lumbar puncture on Day1 (before dose) and on Day 7 (i.e., following daily dosing for 7 days) approximately 30 minutes from time of the maximum observed plasma BH4 concentration (Tmax) as determined from the blood analysis. The cerebral spinal fluid (CSF) is analyzed by MNG Labs. Descriptive statistics are provided to characterize any changes in neurotransmitter metabolism between the Day 1, and Day 7 sample results. Method: Analyses were conducted in CSF samples of subjects administered 60 mg/kg sepiapterin or placebo. The following analytes were measured: sepiapterin, BH4, BH2, homovanillic acid (HVA), and 5-hydroxyindoleacetic acid (HIAA). Descriptive (n, mean, SD, median, minimum, maximum) statistics for these analytes at Day 1 and Day 7+/−30 minutes from Tmax and change from baseline at Day 7 were determined for each analyte.

## C[C@H](O)C(=O)C1=Nc2c(nc(N)[nH]c2=O)NC1 [sepiapterin, Sepiapterin]
[1]; fasted, 0 h (predose)
  Maximum sepiapterin concentration in plasma: 0 nM
  Mean sepiapterin concentration in plasma: 0 nM
  Median sepiapterin concentration in plasma: 0 nM
[1]; fasted, 8 h
  Maximum sepiapterin concentration in plasma: 0 nM
  Mean sepiapterin concentration in plasma: 0 nM
  Median sepiapterin concentration in plasma: 0 nM
[1]; fasted, 12 h
  Maximum sepiapterin concentration in plasma: 0 nM
  Mean sepiapterin concentration in plasma: 0 nM
  Median sepiapterin concentration in plasma: 0 nM
[1]; fasted, 24 h
  Maximum sepiapterin concentration in plasma: 0 nM
  Mean sepiapterin concentration in plasma: 0 nM
  Median sepiapterin concentration in plasma: 0 nM
[1]; fed, 0 h (predose)
  Maximum sepiapterin concentration in plasma: 0 nM
  Mean sepiapterin concentration in plasma: 0 nM
  Median sepiapterin concentration in plasma: 0 nM
[1]; fed, 0 h (predose), read-out: Minimum sepiapterin concentration in plasma
  concentration at 2 h: 0 nM
[1]; fed, 0.5 h
  Median sepiapterin concentration in plasma: 0 nM
[1]; fed, 0.5 h, read-out: Minimum sepiapterin concentration in plasma
  concentration at 2 h: 0 nM
[1]; fed, 4 h, read-out: Minimum sepiapterin concentration in plasma
  concentration at 2 h: 0 nM
[1]; fed, 8 h
  Median sepiapterin concentration in plasma: 0 nM
[1]; fed, 8 h, read-out: Minimum sepiapterin concentration in plasma
  concentration at 2 h: 0 nM
[1]; fed, 12 h
  Maximum sepiapterin concentration in plasma: 0 nM
  Mean sepiapterin concentration in plasma: 0 nM
  Median sepiapterin concentration in plasma: 0 nM
[1]; fed, 12 h, read-out: Minimum sepiapterin concentration in plasma
  concentration at 2 h: 0 nM
[1]; fed, 24 h
  Maximum sepiapterin concentration in plasma: 0 nM
  Mean sepiapterin concentration in plasma: 0 nM
  Median sepiapterin concentration in plasma: 0 nM
[1]; fed, 24 h, read-out: Minimum sepiapterin concentration in plasma
  concentration at 2 h: 0 nM
[1]; human, plasma, fasted, 0 h (predose), read-out: Minimum sepiapterin concentration in plasma
  concentration at 0 h: 0 nM
[1]; human, plasma, fasted, 0.5 h, read-out: Minimum sepiapterin concentration in plasma
  concentration at 0.5 h: 0 nM
[1]; human, plasma, fasted, 4 h, read-out: Minimum sepiapterin concentration in plasma
  concentration at 4 h: 0 nM
[1]; human, plasma, fasted, 8 h, read-out: Minimum sepiapterin concentration in plasma
  concentration at 8 h: 0 nM
[1]; human, plasma, fasted, 12 h, read-out: Minimum sepiapterin concentration in plasma
  concentration at 12 h: 0 nM
[1]; human, plasma, fasted, 24 h, read-out: Minimum sepiapterin concentration in plasma
  concentration at 24 h: 0 nM
[1]; human, plasma, fed, 1 h, read-out: Minimum sepiapterin concentration in plasma
  concentration at 1 h: 0 nM
[1]; human, plasma, fed, 2 h, read-out: Minimum sepiapterin concentration in plasma
  concentration at 2 h: 0 nM
[1]; fasted/fed
  Geometric mean ratio (fasted/fed, 90% CI) for plasma sepiapterin AUClast: 1.29 (0.84 to 2.00)
  Geometric mean ratio (fasted/fed, 90% CI) for plasma sepiapterin Cmax: 1.57 (1.21 to 2.0)
[1]; fed vs fasted
  Cmax of BH4 in the plasma, fed compared to fasted: much higher
  Cmax of sepiapterin in the plasma, fed compared to fasted: much lower
[2]; human, in vivo, 10 mg/kg
  TEAE: 4
  TEAE related to study drug: 1
  ≥1 AE: 5
[2]; single dose 10 mg/kg, fed vs fasted
  Incidence of adverse events, fed compared to fasted subjects: decreased incidence of adverse events
[3]; Day 7, 60 mg/kg once daily
  AUC0-24 of sepiapterin: 23 ng·h/mL
[3]; once daily for 7 days
  Drug accumulation (plasma sepiapterin and BH4 after 1 and 7 days of treatment): no drug accumulation
[4]
  Sepiapterin in the CSF: not detected
